The values below come from PubChem BioAssay (NCI).

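Cells were grown in 96-well plates and exposed to each compound for 48 hours at five concentrations; endpoints were interpolated linearly between bracketing concentrations, or set to the highest concentration if not reached. Definition used: TGI = concentration required for complete inhibition of growth.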 Bounds are passed on as bounds.

Test systems include MDA-MB-231 breast; UO-31 renal; RPMI-8226 leukemia; SNB-19 CNS; SK-MEL-5 melanoma; EKVX NSCLC; MOLT-4 leukemia; CCRF-CEM leukemia; MDA-N; TK-10 renal.
Assay in all cases: inhibition of tumour cell growth, NCI panel, 48 h

For `COc1ccc2nc3ccc(OC)cc3c(S(=O)Cc3ccc([N+](=O)[O-])cc3)c2c1` (stereo not given), the TGI came to 29.9 µM with MDA-MB-231 breast; 12.9 µM in the assay on UO-31 renal; 7.7 µM in the assay with RPMI-8226 leukemia; 52.3 µM in the assay on SNB-19 CNS; 31.8 µM with SK-MEL-5 melanoma; 32.5 µM with EKVX NSCLC. The TGI in the assay on MOLT-4 leukemia is above 23.2 µM; in the assay on CCRF-CEM leukemia, above 21.9 µM; in the assay with MDA-N it was 29.7 µM; with TK-10 renal it was 10.4 µM.

On to `COC(=O)C1Cc2c(C)cccc2C1=O` (stereo not given), for which the TGI with MDA-MB-231 breast, in the assay on UO-31 renal, in the assay on RPMI-8226 leukemia, in the assay with SNB-19 CNS, in the assay on SK-MEL-5 melanoma and in the assay on EKVX NSCLC was above 100 µM in each case. The TGI in the assay with MOLT-4 leukemia, in the assay with CCRF-CEM leukemia, in the assay with MDA-N and in the assay with TK-10 renal was above 100 µM each time.

Regarding `COC(=O)OC[C@H]1O[C@@H](n2cc(C)c(=O)[nH]c2=O)CC1OC(=O)OC` (stereo not given in full), the TGI with MDA-MB-231 breast, in the assay with UO-31 renal, with RPMI-8226 leukemia, with SNB-19 CNS, in the assay on SK-MEL-5 melanoma and in the assay with EKVX NSCLC was above 100 µM in each case. For the same compound, the TGI with MOLT-4 leukemia, with CCRF-CEM leukemia, in the assay with MDA-N and in the assay with TK-10 renal was above 100 µM each time.

Turning to `O=[N+]([O-])/C(C(Cl)=C(Cl)Cl)=C1\Nc2ccccc2O1`, the TGI in the assay on MDA-MB-231 breast was above 100 µM; in the assay on UO-31 renal, 30.6 µM; in the assay with RPMI-8226 leukemia it was 75.6 µM; in the assay with SNB-19 CNS, above 100 µM; in the assay on SK-MEL-5 melanoma it was above 100 µM; in the assay with EKVX NSCLC, above 100 µM. Further, the TGI is 77.9 µM in the assay with MOLT-4 leukemia, 38.7 µM in the assay with CCRF-CEM leukemia, above 100 µM in the assay on MDA-N and above 100 µM in the assay with TK-10 renal.

Take `NC1=CN(CCCO)C2=N/C(=C\c3ccco3)C(=O)N12`: the TGI with MDA-MB-231 breast, in the assay with UO-31 renal, in the assay on RPMI-8226 leukemia, in the assay with SNB-19 CNS, in the assay on SK-MEL-5 melanoma and with EKVX NSCLC was above 100 µM each time. Further, the TGI with MOLT-4 leukemia, with CCRF-CEM leukemia, in the assay with MDA-N and with TK-10 renal was above 100 µM each time.

In the case of `CCC1(O)C=CC(=O)C=C1`, the TGI with MDA-MB-231 breast was 36.6 µM; with UO-31 renal it was 36.7 µM; in the assay with RPMI-8226 leukemia, above 100 µM; with SNB-19 CNS it was 39.2 µM; in the assay with SK-MEL-5 melanoma, above 100 µM; in the assay with EKVX NSCLC, above 100 µM. Further, the TGI was above 100 µM with MOLT-4 leukemia, above 100 µM in the assay with CCRF-CEM leukemia, above 100 µM in the assay with MDA-N and 45.6 µM in the assay with TK-10 renal.

Regarding `NCCC1(N)CCNCC1`, the TGI in the assay on MDA-MB-231 breast, in the assay with UO-31 renal, in the assay on RPMI-8226 leukemia, in the assay with SNB-19 CNS, in the assay with SK-MEL-5 melanoma and in the assay on EKVX NSCLC was above 100 µM in each case. The TGI with MOLT-4 leukemia, in the assay on CCRF-CEM leukemia, in the assay on MDA-N and with TK-10 renal was above 100 µM throughout.

Consider `CCOC(=O)NNC(=O)NCCNC(=O)NNC(=O)OCC`, for which the TGI with MDA-MB-231 breast, in the assay with UO-31 renal, in the assay on RPMI-8226 leukemia, in the assay with SNB-19 CNS, in the assay with SK-MEL-5 melanoma and in the assay on EKVX NSCLC was above 100 µM in each case. Moreover, the TGI with MOLT-4 leukemia, in the assay with CCRF-CEM leukemia, in the assay with MDA-N and in the assay on TK-10 renal was above 100 µM throughout.

In the case of `Nc1c(Br)cc(-c2cc(Br)c(N)c(Br)c2)cc1Br`, the TGI in the assay with MDA-MB-231 breast, with UO-31 renal, in the assay on RPMI-8226 leukemia, in the assay with SNB-19 CNS, with SK-MEL-5 melanoma and in the assay on EKVX NSCLC was above 100 µM in each case. For the same compound, the TGI in the assay with MOLT-4 leukemia, in the assay with CCRF-CEM leukemia, in the assay on MDA-N and with TK-10 renal was above 100 µM in each case.

With `Cc1ncc([N+](=O)[O-])n1CCN(C)CCCCn1ccnc1[N+](=O)[O-]`, the TGI in the assay on MDA-MB-231 breast, with UO-31 renal, in the assay with RPMI-8226 leukemia, with SNB-19 CNS, with SK-MEL-5 melanoma and with EKVX NSCLC was above 100 µM in each case. Besides, the TGI in the assay with MOLT-4 leukemia, with CCRF-CEM leukemia, in the assay with MDA-N and in the assay with TK-10 renal was above 100 µM each time.
